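These data come from cells grown in 96-well plates and exposed to compound for 48 hours at five concentrations. The concentration for 50% growth inhibition is given as GI50. TGI: total growth inhibition.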
Experiments:
Test in all cases: NCI-60 cell line screen, 48 h
SNB-75 CNS = tested on: SNB-75 CNS
TK-10 renal = tested on: TK-10 renal
SF-295 CNS = tested on: SF-295 CNS
A498 renal = tested on: A498 renal
MALME-3M melanoma = tested on: MALME-3M melanoma
SN12C renal = tested on: SN12C renal
COLO 205 colon = tested on: COLO 205 colon
NCI-H522 lung = tested on: NCI-H522 lung
KM12 colon = tested on: KM12 colon
SK-MEL-28 melanoma = tested on: SK-MEL-28 melanoma
NCI-H460 lung = tested on: NCI-H460 lung
CAKI-1 renal = tested on: CAKI-1 renal
BT-549 breast = tested on: BT-549 breast
HS 578T breast = tested on: HS 578T breast
SF-268 CNS = tested on: SF-268 CNS
U251 CNS = tested on: U251 CNS
RXF 393 renal = tested on: RXF 393 renal
ACHN renal = tested on: ACHN renal
UACC-62 melanoma = tested on: UACC-62 melanoma
UACC-257 melanoma = tested on: UACC-257 melanoma
HOP-62 NSCLC = tested on: HOP-62 NSCLC
MDA-MB-231 breast = tested on: MDA-MB-231 breast
SW-620 colon = tested on: SW-620 colon
786-0 renal = tested on: 786-0 renal
SK-MEL-5 melanoma = tested on: SK-MEL-5 melanoma
OVCAR-4 ovarian = tested on: OVCAR-4 ovarian
MOLT-4 leukemia = tested on: MOLT-4 leukemia
SF-539 CNS = tested on: SF-539 CNS

Work on `Oc1ccc(CSc2nnc(-c3cnccn3)n2-c2ccccc2)c2cccnc12` yielded a GI50 (SNB-75 CNS) of 707 nM, a TGI (SNB-75 CNS) of over 62300 nM and a GI50 (TK-10 renal) of 3230 nM. For the same molecule, the TGI (TK-10 renal) was over 100000 nM, the GI50 (SF-295 CNS) was 1000 nM and the TGI (SF-295 CNS) was over 59600 nM. For the same molecule, the GI50 (A498 renal) was 2600 nM, the TGI (A498 renal) was 10100 nM and the GI50 (MALME-3M melanoma) was 2020 nM. It also gave a TGI (MALME-3M melanoma) of over 100000 nM, a GI50 (SN12C renal) of 392 nM and a TGI (SN12C renal) of over 100000 nM. The GI50 (COLO 205 colon) was 11700 nM, the TGI (COLO 205 colon) was over 100000 nM and the GI50 (NCI-H522 lung) was 353 nM. For the same molecule, the TGI (NCI-H522 lung) was over 100000 nM, the GI50 (KM12 colon) was 1450 nM and the TGI (KM12 colon) was over 100000 nM. It also gave a GI50 (SK-MEL-28 melanoma) of 2070 nM, a TGI (SK-MEL-28 melanoma) of over 100000 nM and a GI50 (NCI-H460 lung) of 412 nM. It also gave a TGI (NCI-H460 lung) of 16400 nM, a GI50 (CAKI-1 renal) of 1980 nM and a TGI (CAKI-1 renal) of over 92300 nM. For the same molecule, the GI50 (BT-549 breast) was 736 nM, the TGI (BT-549 breast) was over 49600 nM and the GI50 (HS 578T breast) was 522 nM. It also gave a TGI (HS 578T breast) of over 100000 nM, a GI50 (SF-268 CNS) of 782 nM and a TGI (SF-268 CNS) of over 100000 nM. It also gave a GI50 (U251 CNS) of 470 nM, a TGI (U251 CNS) of over 100000 nM and a GI50 (RXF 393 renal) of 2590 nM. It also gave a TGI (RXF 393 renal) of over 58200 nM, a GI50 (ACHN renal) of 641 nM and a TGI (ACHN renal) of over 40900 nM. It also gave a GI50 (UACC-62 melanoma) of 1180 nM, a TGI (UACC-62 melanoma) of 6730 nM and a GI50 (UACC-257 melanoma) of 2160 nM. For the same molecule, the TGI (UACC-257 melanoma) was over 28700 nM, the GI50 (HOP-62 NSCLC) was 729 nM and the TGI (HOP-62 NSCLC) was 50800 nM. The GI50 (MDA-MB-231 breast) was 1280 nM, the TGI (MDA-MB-231 breast) was over 86500 nM and the GI50 (SW-620 colon) was 624 nM. The TGI (SW-620 colon) was over 100000 nM, the GI50 (786-0 renal) was 3700 nM and the TGI (786-0 renal) was 34000 nM. It also gave a GI50 (SK-MEL-5 melanoma) of 638 nM, a GI50 (OVCAR-4 ovarian) of 3650 nM and a TGI (OVCAR-4 ovarian) of over 100000 nM. For the same molecule, the GI50 (MOLT-4 leukemia) was 707 nM, the TGI (MOLT-4 leukemia) was over 100000 nM and the GI50 (SF-539 CNS) was 919 nM. The TGI (SF-539 CNS) was over 37100 nM.

Source: PubChem BioAssay (NCI)
